These results are taken from patent US20240067639A1, “SMALL MOLECULES THAT TARGET THE RNA THAT CAUSES ALS” (EXPANSION THERAPEUTICS, INC., priority 2020, published 2024).

Molecules are shown by their SMILES.

For one experiment, the system named is r(G4C2)^exp. Particulars: background statement; cited from earlier work.
Experiment [1] deals with cultured cells and induced neurons. The settings on record: cited from earlier work.
Experiment [2] concerns RAN translation of (G4C2)66-No ATG-GFP in HEK293T cells. Nature of the experiment: Cell-based assay of RAN translation inhibition (GFP/mCherry reporter). Particulars: Homo sapiens, HEK-293T; Table G; HEK293T; read-out: RANT IC50.
Experiment [3] has as its target Biotin-labeled RNA (target RNA). Nature of the experiment: BLI affinity measurement (ForteBio Octet RED384). The settings on record: Table G. The format is binding.

On to `Cc1c2cc[n+](CCN3CCCCC3)cc2c(C)c2c1[nH]c1ccc(O)cc12` [Compound 1a], for which the “binding to r(G4C2)exp” value in the experiment on r(G4C2)^exp was “binds”. The “inhibition of RAN translation and foci formation” value in experiment [1] is “inhibits RAN translation and foci formation”.

The IC50 is the concentration at which inhibition is half-maximal. The Kd is the constant that tells how readily two partners part at equilibrium. Higher therefore signals weaker binding. Take `Cc1c2ccncc2cc2c3cc(C(=O)N[C@H](C)CO)ccc3n(C)c12` [Compound 289, (R)—N-(1-hydroxypropan-2-yl)-5,6-dimethyl-6H-pyrido[4,3-b]carbazole-9-carboxamide]: the IC50 in experiment [2] is 2400 nM. In experiment [3], this compound registered a dissociation constant Kd of 5000 nM.

For the compound `Cc1c2ccncc2cc2c3cc(OCC[C@H](C)N)ccc3n(C)c12` [Compound 268, (S)-4-((5,6-dimethyl-6H-pyrido[4,3-b]carbazol-9-yl)oxy)butan-2-amine], in experiment [2], the IC50 worked out at 2900 nM. Also, the dissociation constant (Kd) in experiment [3] was 8700 nM.

For the compound `Cc1c2ccnc(C(=O)NCCN)c2cc2c3cc(F)ccc3n(C)c12` [Compound 308, N-(2-aminoethyl)-9-fluoro-5,6-dimethyl-6H-pyrido[4,3-b]carbazole-1-carboxamide], the 50% inhibitory concentration (IC50) in experiment [2] was > 100000 nM. Besides, the equilibrium dissociation constant (Kd) in experiment [3] is 560 nM.

Take `Cc1c2ccncc2cc2c3cc(C(=O)NC[C@@H](C)N)ccc3n(C)c12` [Compound 284, (R)—N-(2-aminopropyl)-5,6-dimethyl-6H-pyrido[4,3-b]carbazole-9-carboxamide]: the IC50 in experiment [2] turned out to be 1800 nM. Further, the equilibrium dissociation constant (Kd) in experiment [3] is 350 nM.

Take `Cc1c2ccncc2cc2c3cc(Oc4cccc(N)n4)ccc3n(C)c12` [Compound 304, 6-((5,6-dimethyl-6H-pyrido[4,3-b]carbazol-9-yl)oxy)pyridin-2-amine]: in experiment [2], the half-inhibitory concentration (IC50) is 5900 nM. Also, in experiment [3], the equilibrium dissociation constant (Kd) was 1400 nM.

As for `CN[C@@H](C)COc1ccc2c(c1)c1cc3cnccc3c(C)c1n2C` [Compound 276, (S)-1-((5,6-dimethyl-6H-pyrido[4,3-b]carbazol-9-yl)oxy)-N-methylpropan-2-amine], the IC50 in experiment [2] was determined as 12000 nM. For the same compound, the affinity in experiment [3], expressed as Kd, was 41 nM.
